Measurements reported in patent publication US5679675A, “8-amino-10-(azabicycloalkyl)-pyrido[1,2,3-d,e][1,3,4]benzoxadiazine derivatives” (Bayer Aktiengesellschaft, priority 1994, dated 1997).
≈ marks a conversion by molar mass, not a printed value. Where two headings read alike, the source gives them in different places.

Experiments:
Experiment in all cases: MIC, serial dilution method on Iso-Sensitest agar
Type in all cases: cell-based
[1] = system: Providencia sp.; settings: 20 h, about 20 hours
Procedure: (§1) The minimum inhibitory concentrations (MIC) of the compounds according to the invention were determined by serial dilution methods on Iso-Sensitest agar (Oxoid). For each test substance, a series of agar plates was prepared which contained decreasing concentrations of the active compound at, in each case, double dilution. The agar plates were inoculated with a multipoint inoculator (Denley). For inoculation, overnight cultures of the pathogens were reed which had previously been diluted such that each inoculation point contained about 10^4 colony-forming particles. The inoculated agar plates were incubated at 37° C., and the growth of microorganism was read off after about 20 hours. The MIC value (μg/ml) indicates the lowest active compound concentration at which no growth was to be detected with the naked eye.

[2] = system: Enterococcus faecalis; settings: 20 h, about 20 hours
Procedure: as §1

[3] = system: Staphylococcus aureus; settings: about 20 hours
Procedure: as §1

[4] = system: E. coli; settings: Escherichia coli, 37° C., about 20 hours
Procedure: as §1

[5] = system: Klebsiella pneumoniae; settings: 37° C., about 20 hours
Procedure: as §1

[6] = system: Acinetobacter; settings: strain 14068, 37° C., about 20 hours
Procedure: as §1

[7] = system: Micrococcus luteus; settings: strain 9341, 37° C., about 20 hours
Procedure: as §1

[8] = ATCC29213, 20 h, strain ATCC 29213, 37° C.
[9] = Klebsiella pneumoniae, strain 8085, read-out: MIC

Structure (SMILES) | MIC ([1]; strain 12012, 37° C.) [µg/mL] | MIC ([1]; strain 12052, 37° C.) [µg/mL] | MIC ([2]; strain 9790, 37° C.) [µg/mL] | MIC ([2]; strain 27101, 37° C.) [µg/mL] | MIC ([3]; 20 h, strain 133, 37° C.) [µg/mL] | MIC ([3]; 20 h, strain ICB 25701, 37° C.) [µg/mL] | MIC ([3]; 20 h, strain ICB 25768, 37° C.) [µg/mL] | MIC [3, 8] [µg/mL] | MIC ([4]; ATCC25922, strain ATCC 25922) [µg/mL] | MIC ([4]; strain Neumann) [µg/mL] | MIC [5, 9] [µg/mL] | MIC ([5]; strain 63) [µg/mL] | MIC [6] [µg/mL] | MIC [7] [µg/mL]
CN1COc2c(N3C[C@H]4[C@H](N)CC=C[C@H]4C3)c(F)c(N)c3c(=O)c(C(=O)O)cn1c23 (relative stereo) [Example 11, 8-Amino-10-((1SR,2RS,6RS)-2-amino-8-azabicyclo[4.3.0]non-4-en-8-yl)-9-fluoro-3-methyl-7-oxo-2,3-dihydro-7H-pyrido[1,2,3-d,e][1,3,4]benzoxadiazine-6-carboxylic acid] | ≤ 0.015 | 16 (≈ 38.5 µM) | ≤ 0.015 | ≤ 0.015 | ≤ 0.015 | 0.5 (≈ 1.2 µM) | 16 (≈ 38.5 µM) | ≤ 0.015 | ≤ 0.015 | ≤ 0.015 | ≤ 0.015 | ≤ 0.015 | ≤ 0.015 | 0.5 (≈ 1.2 µM)
CNC1C=CCC2CN(c3c(F)c(N)c4c(=O)c(C(=O)O)cn5c4c3OCN5C)CC21 (centres unmarked) [Example 4, 8-Amino-9-fluoro-3-methyl-10-(2-methylamino-8-azabicyclo[4.3.0]non-3-en-8-yl)-7-oxo-2,3-dihydro-7H-pyrido[1,2,3-d,e][1,3,4]benzoxadiazine-6-carboxylicacid] | 0.06 (≈ 0.14 µM) | 4 (≈ 9.31 µM) | 0.06 (≈ 0.14 µM) | 0.06 (≈ 0.14 µM) | ≤ 0.015 | 0.5 (≈ 1.16 µM) | 1 (≈ 2.33 µM) | ≤ 0.015 | 0.03 (≈ 0.0699 µM) | 0.03 (≈ 0.0699 µM) | 0.06 (≈ 0.14 µM) | 0.06 (≈ 0.14 µM) | ≤ 0.015 | ≤ 0.015
CN1COc2c(N3CC4CC=CC(N)C4C3)c(F)c(N)c3c(=O)c(C(=O)O)cn1c23 (centres unmarked) [Example 5, 8-Amino-10-(2-amino-8-azabicyclo[4.3.0]non-3-en-8-yl)-9-fluoro-3-methyl-7-oxo-2,3-dihydro-7H-pyrido[1,2,3-d,e][1,3,4]benzoxadiazine-6-carboxylic acid] | ≤ 0.015 | 2 (≈ 4.81 µM) | 0.03 (≈ 0.0722 µM) | 0.03 (≈ 0.0722 µM) | ≤ 0.015 | 0.125 (≈ 0.301 µM) | 0.25 (≈ 0.602 µM) | ≤ 0.015 | ≤ 0.015 | ≤ 0.015 | 0.03 (≈ 0.0722 µM) | 0.03 (≈ 0.0722 µM) | ≤ 0.015 | ≤ 0.015
CC1C=CC(N)C2CN(c3c(F)c(N)c4c(=O)c(C(=O)O)cn5c4c3OCN5C)CC12 (centres unmarked) [Example 7, 8-Amino-10-(2-amino-5-methyl-8-azabicyclo[4.3.0]non-3-en-8-yl)-9-fluoro-3-methyl-7-oxo-2,3-dihydro-7-H-pyrido[1,2,3-d,e][1,3,4]benzoxadiazine-6-carboxylic acid] | 0.03 (≈ 0.0699 µM) | 2 (≈ 4.66 µM) | 0.03 (≈ 0.0699 µM) | ≤ 0.015 | ≤ 0.015 | 0.25 (≈ 0.582 µM) | 0.5 (≈ 1.16 µM) | ≤ 0.015 | ≤ 0.015 | ≤ 0.015 | 0.03 (≈ 0.0699 µM) | 0.03 (≈ 0.0699 µM) | ≤ 0.015 | ≤ 0.015
